The subject of series [1] is erythrocytes. Put plainly: Distribution of total radioactivity (3H/14C) on erythrocytes and plasma after one-time oral administration (FIG. 1). The series is classed as in vivo. As to conditions: 3H-labeled steroid skeleton. The text has this:
There are indications that in oral administration, both radicals R^1 and R^2, if they are different from a hydrogen atom, are cleaved off and are replaced by a hydrogen atom, so that in this case, not the group —SO2NR^1R^2, but rather the group —SO2NH2 is provided for the uptake into erythrocytes or binding to erythrocytes. […] The data also confirm that substances according to the invention are enriched in the erythrocyte compartment relative to the plasma.

For series [2], the system named is erythrocytes. Put plainly: Stability of the prodrug and release of the active ingredient in erythrocytes, plasma and tissues. The series is classed as in vitro ADME. The text has this: If the compounds act as a prodrug, the therapeutically desirable action is obtained by release, especially hydrolytic cleavage, of the active ingredient that is contained in the product and/or its metabolites.

Series [3] addresses T1, carboanhydrase II (hCA II) (Homo sapiens, UniProt P00918).
T1 construct: proteins of erythrocyte-lysates were separated on the column; from tissue; host or cells: erythrocytes (lysate)
Put plainly: Affinity chromatography of erythrocyte lysate proteins on immobilized estradiol sulfamate derivative, eluate analysed by Western blot. It is filed as binding. The following applies: ligand J1242 immobilized on E-AH-sepharose. The text has this: In FIG. 3, the chemical synthesis of a linkable estradiol sulfamate (J1242) is shown, which is described in S. Schwarz et al., Steroids 64 (1999) 460–471.
After the estradiol sulfamate derivative is immobilized in the column material (E-AH-sepharose), proteins of erythrocyte-lysates were separated on the column. The protein that is responsible for the binding of estradiol sulfamate in erythrocytes was adsorbed on the surface of the affinity chromatography column. After the protein remaining on the column was washed and eluted with an acetate buffer, the eluate was analyzed with use of the “Western Plot Technique” (see FIGS. 4 and 5).
(In general: Immunoblotting shows a protein as a band on a membrane.)

Series [4] is described as follows: Hepatic estrogenicity after oral administration. The series is classed as in vivo. The text has this: After oral administration, estradiol sulfamate is resorbed by the gastrointestinal tract and is taken up into erythrocytes or bonded to erythrocytes. […] The estradiol sulfamate is enriched in the erythrocytes by a multiple (factor: 98:2) of the plasma concentration, whereby a depot of the estradiol sulfamate is produced that makes possible the slow release of the estradiol sulfamate into peripheral tissues and target tissues (see FIG. 2). This makes possible an extension of the dwell time of the estradiol sulfamate in the organism, and the occurrence of very high levels in the plasma is avoided.

We go through 2 molecules from patent US7507725B2, “Compounds with sulphonamide group and pharmaceutical compositions containing these compounds” (Schering AG, priority 2000, dated 2009).

With “17β-hydroxy-estra-1,3,5(10)-trien-3-yl-(N-acetyl)sulfamate [J1045]”, the “presence of the 14C-labeled acyl substituent of the sulfamate radical in the blood” value in series [1] is listed as “no longer present in the-blood”.

For `C[C@]12CC[C@@H]3c4ccc(OS(N)(=O)=O)cc4CC[C@H]3[C@@H]1CC[C@@H]2O` [J995, estradiol sulfamate], the “site of release of the active ingredient from the prodrug” value in series [2] is given as “only in the plasma or in tissues”. In series [2] (erythrocytes), the “stability of the compound in erythrocytes” value is on record as “stable in the erythrocytes”. Moreover, in series [3], the “binding to carrier protein in erythrocytes” value was “binds to the carboanhydrase II (hCA II)”. The hepatic estrogenicity result in series [4] is recorded as “reduced hepatic estrogenicity”.
